Entries after “also recorded” stand apart in the source; their conditions may differ.
What follows are substances tested on HLA-class II molecules (HLA-DR, -DQ, -DP) (assay: HLA restriction of PBMC proliferating in response to GPIIIa peptides (blocking antibodies)). Conditions: PBMC from four AITP patients.
Type: cell-based, human
Method: To determine the HLA Class II restriction of proliferating T cells, […] anti-DR, anti-DQ or anti-DP blocking monoclonal antibodies (Pharmingen, Oxon, UK) were added to replicate cultures before stimulation.
Dominant peptides 2(aa6-20), 47 (aa361-375), 53 (aa421-435) and 82 (aa711-725) were selected for these experiments and used to stimulate PBMC from four AITP patients, in the presence or absence of anti-DP, -DQ or DR. Representative results from one patient are illustrated in FIG. 7.

Substance | blocking of peptide-induced proliferation by anti-DP, -DQ or -DR
ALLIWKLLITIHDRK (listed as Homo sapiens) [peptide 82, GPIIIa residues 711-725] | blocked by at least one of the antibodies
DLPEELSLSFNATCL (listed as Homo sapiens) [compound 47, GPIIIa residues 361-375] | blocked by at least one of the antibodies
FKDSLIVQVTFDCDC (listed as Homo sapiens) [compound 53, GPIIIa residues 421-435] | blocked by at least one of the antibodies
TTRGVSSCQQCLAVS (listed as Homo sapiens) [peptide 2, GPIIIa residues 6-20] | blocked by at least one of the antibodies

The substances below were run on PBMC from healthy control donors (assay: T cell proliferation assay, PBMC from healthy control donors). Conditions: not given.
Type: cell-based, human
Text: (§1) The human platelet membrane GPIIIa amino acid sequence (Genebank Accession no: M35999) was synthesized (Pepceuticals, Nottingham, UK) as a complete panel of 86 15-mer peptides, overlapping by 5-10 amino acids (Table 3). Peptide purity was monitored by amino acid analysis and mass spectrometry as reported previously by Barker R N et al in Blood 1997; 90:2701-2715, Scott L et al in Blood 2000; 96:4011-4019 and Cairns L S et al in J Am Soc Nephrol 2003; 14:2801-2812. The peptides were used for stimulation of T cells at the previously determined optimum concentration of […] in culture.
(§2) The antigen mycobacterial purified protein derivative (PPD) (Statens Serumintitut, Denmark) was added to cultures at […] to stimulate positive control recall T cell responses. Concanavalin A (Con A) (Sigma, Poole, Dorset, UK) was used at […] as a positive control T cell mitogen.
Mononuclear cells were recovered from anti-coagulated samples of peripheral blood from AITP patients and control donors by density gradient centrifugation (Lymphoprep; Nycomed, Denmark). Cell viability determined by trypan blue exclusion was greater than 90% in all samples. […]

Substance | stimulation of PBMC from control donors
ALLIWKLLITIHDRK (listed as Homo sapiens) [peptide 82, GPIIIa residues 711-725] | only dominant sequence to induce proliferation by Th cells from control donors; also recorded: more than one control donor

The substances below were run on PBMC from AITP patients (assay: T cell proliferation assay, PBMC from AITP patients stimulated with GPIIIa peptides). Conditions: PBMC from all patients and control donors.
Type: cell-based, human
Set-up: PBMC proliferation to control recall antigen or mitogen: dose or concentration left out as unconfirmed
Text: as §1, §2
Mononuclear cells were recovered from anti-coagulated samples of peripheral blood from AITP patients and control donors by density gradient centrifugation (Lymphoprep; Nycomed, Denmark). Cell viability determined by trypan blue exclusion was greater than 90% in all samples.
Assays of T cell proliferation were carried out, as described by Scott L et al in Blood 2000; 96:4011-4019, Cairns L S et al in J Am Soc Nephrol 2003; 14:2801-2812 and Sukati H et al in Transfusion 2005; 45:1165-1177, under culture conditions designed to favor responses by previously activated T cells, rather than primary responses. Briefly, PBMC were cultured at 1.25×10^6 cells per mL in Alpha Modification of Eagle's Medium (Sigma, Poole, Dorset, UK) supplemented with 5% autologous serum. Synthetic GPIIIa peptides or control stimuli were added to cultures, which were incubated at 37° C. in a humidified atmosphere of 95% air and 5% CO2. T cell proliferation was estimated from the incorporation of 3H-thymidine in triplicate […] samples withdrawn from the cultures 5 days after stimulation, when recall responses peak. Results are presented either as the mean counts per minute (CPM)±SD of the triplicate samples, or as a stimulation index (SI) expressing the ratio of mean CPM in stimulated versus unstimulated control cultures. An SI>3 is interpreted as a positive response.

Substance | PBMC proliferation to control recall antigen or mitogen
Concanavalin A [Con A, reference compound] | proliferated normally

Same assay, conditions: PBMC from patient AITP26

Substance | Stimulatory Peptides (SI > 3)
CECDDFSCVRYKGEM (listed as Homo sapiens) [compound 63, GPIIIa residues 521-535] | > 63

Same assay, conditions: patient AITP22, three occasions over 56 weeks (presentation, 44 weeks, 56 weeks)

Substance | PBMC proliferation in serial samples
ALLIWKLLITIHDRK (listed as Homo sapiens) [peptide 82, GPIIIa residues 711-725] | initially absent but appeared at later time points
DDCVVRFQYYEDSSG (listed as Homo sapiens) [peptide 77, GPIIIa residues 661-675] | seen only in the second sample
DLPEELSLSFNATCL (listed as Homo sapiens) [compound 47, GPIIIa residues 361-375] | initially absent but appeared at later time points
FKDSLIVQVTFDCDC (listed as Homo sapiens) [compound 53, GPIIIa residues 421-435] | initially absent but appeared at later time points
TTRGVSSCQQCLAVS (listed as Homo sapiens) [peptide 2, GPIIIa residues 6-20] | elicited proliferation from all samples

Same assay, conditions: patients expressing an HLA-DR type predicted to bind the peptide with high affinity

Substance | AITP Patients with PBMC Response to Peptide, High Affinity DR Expressed
DDCVVRFQYYEDSSG (listed as Homo sapiens) [peptide 77, GPIIIa residues 661-675] | AITP11,; also recorded: AITP16,; also recorded: AITP22
DLPEELSLSFNATCL (listed as Homo sapiens) [compound 47, GPIIIa residues 361-375] | None
FKDSLIVQVTFDCDC (listed as Homo sapiens) [compound 53, GPIIIa residues 421-435] | AITP11,; also recorded: AITP-12,; also recorded: AITP18,; also recorded: AITP20
GVLSMDSSNVLQLIV (listed as Homo sapiens) [compound 44, GPIIIa residues 331-345] | AITP8,; also recorded: AITP24
PGSYGDTCEKCPTCP (listed as Homo sapiens) [compound 70, GPIIIa residues 591-605] | None
TTRGVSSCQQCLAVS (listed as Homo sapiens) [peptide 2, GPIIIa residues 6-20] | None

Same assay, conditions: patients not expressing an HLA-DR type predicted to bind the peptide with high affinity

Substance | AITP Patients with PBMC Response to Peptide, No High Affinity DR Expressed
ALLIWKLLITIHDRK (listed as Homo sapiens) [peptide 82, GPIIIa residues 711-725] | AITP12
DDCVVRFQYYEDSSG (listed as Homo sapiens) [peptide 77, GPIIIa residues 661-675] | AITP2,; also recorded: AITP8
FKDSLIVQVTFDCDC (listed as Homo sapiens) [compound 53, GPIIIa residues 421-435] | AITP1,; also recorded: AITP8,; also recorded: AITP9,; also recorded: AITP10,; also recorded: AITP22,; also recorded: AITP24
GVLSMDSSNVLQLIV (listed as Homo sapiens) [compound 44, GPIIIa residues 331-345] | AITP1,; also recorded: AITP3,; also recorded: AITP10,; also recorded: AITP18,; also recorded: AITP21,
PGSYGDTCEKCPTCP (listed as Homo sapiens) [compound 70, GPIIIa residues 591-605] | AITP2,; also recorded: AITP7,; also recorded: AITP15,; also recorded: AITP20,; also recorded: AITP24
